Assay results as given in patent US11814396B2, “Sesquiterpenoid analogs” (Purdue Research Foundation, priority 2018, dated 2023).
Values belong to the compound of their own block, whether it stands above or below them.

Assays:
MDA-MB-231 lysate = experiment: Gel-based in vitro JW-RF-001 competition of labeling with Example 4; assay type: binding; conditions: 30 μM Example 4, MDA-MB-231 lysate, one hour at r.t.
Experimental: MDA-MB-231 lysate (2 mg/mL, 25 μL) was treated with indicated concentrations of azide probes (Example 4) (1 μL of 25× stock in DMSO) for one hour at r.t. Click chemistry was initiated by the addition of TAMRA alkyne (Sigma-Aldrich, 30 μM, 25× stock in DMSO), tris(2-carboxyethyl)phosphine hydrochloride (TCEP, Alfa Aesar, 1 mM, fresh 50× stock in water), tris[(1-benzyl-1H-1,2,3-triazol-4-yl)methyl]amine (TBTA, Sigma-Aldrich, 100 μM, 16× stock in DMSO:tBuOH 1:4), and copper(II) sulfate (1 mM, 50× stock in water) to the lysate and incubated in the dark for one hour at r.t. SDS-PAGE reducing loading buffer (4×) was added and proteins were separated using a 10% SDS-PAGE gel. Gels were visualized using an Azure Biosystems Sapphire Biomolecular Imager, then stained using Coomassie. Images were quantified with ImageJ (V1.51).
MDA-MB-231 lysate (2 mg/mL, 25 μL) was treated with either 3 mM JW-RF-001 (1 μL of 25× stock in DMSO) or DMSO for one hour at r.t. Subsequently, lysate was incubated with 30 μM Example 4 (1 μL, of 25× stock in DMSO) for one hour at r.t. Click chemistry, reducing SDS-PAGE and visualization were performed as described above.

SHP2 = target: T1, SHP2 (Homo sapiens, UniProt Q06124); experiment: PTP inhibition study with pNPP as substrate; assay type: biochemical; conditions: pH 7, 25° C.; for IC50: 15 min
T1 sequence (Q06124 1-593): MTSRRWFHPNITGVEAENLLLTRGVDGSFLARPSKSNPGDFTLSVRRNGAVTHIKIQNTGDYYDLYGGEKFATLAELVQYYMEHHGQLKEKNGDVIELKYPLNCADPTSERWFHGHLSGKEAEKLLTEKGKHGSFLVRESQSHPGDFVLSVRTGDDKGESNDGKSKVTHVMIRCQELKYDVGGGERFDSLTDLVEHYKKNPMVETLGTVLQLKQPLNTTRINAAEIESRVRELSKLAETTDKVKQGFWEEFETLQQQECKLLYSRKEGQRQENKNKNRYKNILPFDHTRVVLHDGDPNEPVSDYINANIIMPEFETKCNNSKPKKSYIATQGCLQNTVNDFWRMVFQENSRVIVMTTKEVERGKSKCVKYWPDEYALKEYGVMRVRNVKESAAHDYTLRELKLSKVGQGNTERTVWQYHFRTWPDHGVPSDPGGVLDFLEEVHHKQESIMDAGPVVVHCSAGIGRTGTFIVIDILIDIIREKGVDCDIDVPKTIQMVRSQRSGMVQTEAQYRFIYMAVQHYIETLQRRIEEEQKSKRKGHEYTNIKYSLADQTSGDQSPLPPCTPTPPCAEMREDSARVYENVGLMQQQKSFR
Experimental: PTP Inhibition Study. Abies sesquiterpenoids and their analogs were evaluated for their ability to inhibit the reaction catalyzed by PTP1B and SHP2 using p-nitrophenyl phosphatae (pNPP) as a substrate at pH 7 and 25° C. […] The reaction was quenched after 3 (PTP1B) or 15 (SHP2) min by the addition of 25 μl of 5N NaOH. The absorbance at 405 nm was detected by a Spectra MAX 384 PLUS microplate spectrophotometer (Molecular Devices). IC50 values were calculated by fitting the absorbance at 405 nm versus inhibitor concentration to the following equation: A1/A0=IC50/(IC50+[I]) wherein A1 is the absorbance at 405 nm of the sample in the presence of inhibitor; A0 is the absorbance at 405 nm in the absence of inhibitor; and [I] is the concentration of the inhibitor.

POLE3-GFP = target: T2, POLE3-GFP (Homo sapiens, UniProt Q9NRF9); experiment: Gel-based determination of kinetic parameters Ki and kinact (Kitz and Wilson method); assay type: binding; conditions: lysate of 293T cells overexpressing WT POLE3-GFP, 37° C., competition with 30 μM Example 4
T2 construct: expressed in transfected cells; host or cells: 293T
T2 sequence (Q9NRF9 1-147): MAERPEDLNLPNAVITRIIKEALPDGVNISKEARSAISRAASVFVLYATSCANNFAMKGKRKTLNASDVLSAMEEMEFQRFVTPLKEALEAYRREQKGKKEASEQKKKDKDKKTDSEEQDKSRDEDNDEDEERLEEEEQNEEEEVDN
Experimental: 293T cells in a 3.5 cm Petri dish were transfected with POLE3-WT-GFP-pEXP or […] using PEI-MAX. After 24 hours, lysates were prepared as described above. Proteins (1 mg/mL, 25 μL) were incubated with indicated compounds at indicated concentrations (25× stock in DMSO) for three hours at 37° C. Subsequently, 30 μM Example 4 (25× stock in DMSO) was added for one hour at r.t. Click chemistry, reducing SDS-PAGE and visualization were performed as described above. Proteins were transferred to a PVDF membrane using a Trans-Blot Turbo transfer system (Bio-Rad). Membrane was blocked with 3% BSA in Tris-Buffered Saline with 0.1% Tween 20 (TBST) for one hour at r.t. Mouse monoclonal antibody against GFP (Roche, 1/1000 in 3% BSA in TBST) was added and incubated overnight at 4° C. Membrane was washed three times for five min. with TBST and incubated with anti-mouse Alexa Fluor 647 (Jackson ImmunoResearch Inc., 1/500 in 3% BSA in TBST) for one hour at r.t. Membrane was washed four times for five min. with TBST and visualized with an Azure Biosystems Sapphire Biomolecular Imager.
WT POLES-GFP was overexpressed in 293T cells as described above and lysate was treated with indicated concentrations of Example 2 (1 μL of 25× stock in DMSO) for 1.5, 2, 2.5, 3, 3.5 or 4 hours at 37° C. […] Images were quantified using ImageJ and the kinetic parameters were determined using GraphPad Prism (V7.02).).

POLE3 = target: T3, POLE3 (Homo sapiens, UniProt Q9NRF9); experiment: Global proteomics profiling versus POLE3 knockdown; assay type: cell-based; conditions: HeLa cells
T3 construct: endogenous in cells; host or cells: HeLa
T3 sequence (Q9NRF9 1-147): T2 sequence (Q9NRF9 1-147)
From the text: To understand whether binding of Example 2 to C51 of POLE3 is productive and leads to the loss of function of this protein, POLE3 was knocked down in HeLa cells using siRNA and compared by global proteomics the protein expression profile in these cells versus cells treated with compound Example 2 or DMSO as control. […] Possibly as a compensatory effect, we also observed fourfold upregulation of POLE, another subunit of DNA polymerase ε.
Knockdown of POLE3 was achieved using RNAiMAx (Invitrogen) and POLE3 siRNA (Dharmacon) via reverse transfection according to the manual of the manufacturer. Briefly, 9 μL of 20 μM siRNA was mixed with 9 μL of RNAiMax reagent in 500 μL OptiMEM and incubated for 20 min. at r.t. […] Samples were analyzed by LC-MS/MS (see below) and the MS data was processed with MaxQuant (see below).
Peptides were resuspended in water with 0.1% formic acid (FA) and analyzed using EASY-nLC 1200 nano-UHPLC coupled to Q Exactive HF-X Quadrupole-Orbitrap mass spectrometer (Thermo Scientific). […]
The MS data was analyzed with MaxQuant (V1.6.1.0) and searched against the human proteome (Uniprot) and a common list of contaminants (included in MaxQuant). […] The minimum peptide length was set to 6 amino acids and peptide re-quantification, label-free quantification (MaxLFQ) and “match between runs” were enabled. […]

HeLa cells = experiment: Visualization of DNA double strand breaks by γH2AX staining (confocal microscopy); assay type: cell-based
Experimental: HeLa cells were seeded (250′000 cells/mL) in a 6-well plate and reverse transfected with scrambled siRNA or POLE3 siRNA using RNAiMAX for two days. Cells were trypsinizned, seeded (150′000 cells/mL) in a 24-well plate containing a coverslip and left overnight to attach and grow. […] Cells were washed one time with PBS and fixed with methanol at −20° C. for 10 min. Cells were washed again two times with PBS and coverslip was transferred to a wet box.
Blocking was performed with a 5% bovine serum albumin (BSA) solution in PBS for 30 min. Cells were washed one time with PBS 0.1% BSA and rabbit antibody directed against H2AX pSer^139 (Sigma Aldrich H5912, 1/250 in PBS 0.1% BSA) was added and incubated for one hour at r.t. Cells were washed three times with PBS 0.1% BSA and incubated for one hour with anti-rabbit IgG Alexa Fluor 488 (Jackson, 1/200 in PBS 0.1% BSA). Cells were washed three times with PBS 0.1% BSA, one time with PBS, one time with water and then mounted on a slide with ProLong Gold antifade mountant with DAPI (Life Technologies). Cells were visualized with an LSM 700 confocal microscope (Zeiss).
Induced DNA damage was measured by confocal microscopy using γH2AX staining as marker.

[1] = system: production of nitric oxide; conditions: reported; cited from earlier work
PTP1B = target: T4, PTP1B (Homo sapiens, UniProt P18031); conditions: reported by Hu et al., Eur. J. Org. Chem. 2016; cited from earlier work
T4 sequence (P18031 1-435): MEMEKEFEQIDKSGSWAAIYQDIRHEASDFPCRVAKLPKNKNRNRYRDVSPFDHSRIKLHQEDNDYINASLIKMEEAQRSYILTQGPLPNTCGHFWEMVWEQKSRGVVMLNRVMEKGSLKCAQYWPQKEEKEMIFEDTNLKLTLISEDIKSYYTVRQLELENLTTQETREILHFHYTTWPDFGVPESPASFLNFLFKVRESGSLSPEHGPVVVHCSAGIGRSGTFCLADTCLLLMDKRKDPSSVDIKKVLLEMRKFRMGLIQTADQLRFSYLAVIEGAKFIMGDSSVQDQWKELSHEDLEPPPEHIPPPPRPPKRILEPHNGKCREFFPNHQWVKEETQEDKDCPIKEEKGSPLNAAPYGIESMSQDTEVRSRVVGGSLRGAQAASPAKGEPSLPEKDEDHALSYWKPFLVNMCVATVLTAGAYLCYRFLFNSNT

- binding of the azide probe in lysate (MDA-MB-231 lysate): binded to cysteines
SMILES: C=C1C[C@@]2(C[C@H](C)[C@H]3CC=C(CN=[N+]=[N-])C(=O)[C@@H]3O2)OC1=O [Example 4, (2R,4S,4aR,8aR)-7-(azidomethyl)-4-methyl-4′-methylene-3,3′,4,4a,4′,8a-hexahydro-5′H-spiro[chromene-2,2′-furan]-5′,8(5H)-dione]

- preference for SHP2 over PTP1B (SHP2): 10 fold
- IC50 (SHP2): 33.3 ± 0.9 µM
SMILES: C=C1C[C@@]2(C[C@H](C)[C@H]3CC=C(CO)C(=O)[C@@H]3O2)OC1=O [Example 3, (2R,4S,4aR,8aR)-7-(hydroxymethyl)-4-methyl-4′-methylene-3,3′,4,4a,4′,8a-hexahydro-5′H-spiro[chromene-2,2′-furan]-5′,8(5H)-dione]

Further lines, the compound ahead of its results:

SMILES: C=C1CC2(CC(C)C3CC=C(CO)C(O)C3O2)OC1=O (stereo not shown) [Example 3′]
- preference for SHP2 over PTP1B (SHP2): 10 fold
- IC50 (SHP2): 3.3 ± 0.1 µM

SMILES: C=C1C[C@@]2(C[C@H](C)[C@H]3CC=C(C)C(=O)[C@@H]3O2)OC1=O [Example 2, (2R,4S,4aR,8aR)-4,7-dimethyl-4′-methylene-3,3′,4,4a,4′,8a-hexahydro-5′H-spiro[chromene-2,2′-furan]-5′,8(5H)-dione]
- kinact (POLE3-GFP): 0.0045 s⁻¹
- Ki (POLE3-GFP; read-out: POLE3-GFP binding constant Ki): 56.9 µM
- functional effect of binding on POLE3 (overlap of protein expression profile with POLE3 KD cells) (POLE3; 30 μM, 6 h treatment): leads to the loss of function of POLE3
- upregulation of POLE (POLE3; POLE3 KD and Example 2-treated (30 μM, 6 h)): fourfold
- γH2AX signal, combination with etoposide versus etoposide only-treated cells (HeLa cells; 30 μM etoposide combined with 30 μM Example 2, 6 hours): significantly stronger γH2AX signal
- γH2AX signal intensity, compound alone (HeLa cells; 30 μM, 6 hours): did not lead to an increase
- preference for SHP2 over PTP1B (SHP2): 10 fold
- IC50 (SHP2): 44.9 ± 9.6 µM

SMILES: CC1=C[C@@]2(C[C@H](C)[C@H]3CC=C(C)[C@@H](O[C@@H]4O[C@H](CO)[C@@H](O)[C@H](O)[C@H]4O)[C@@H]3O2)OC1=O [Abiespiroside A, abiespiroside A]
- inhibitory activity against the production of nitric oxide [1]: potent inhibitory activity

SMILES: CC1=C[C@@]2(C[C@H](C)[C@H]3CC=C(C)C(=O)[C@@H]3O2)OC1=O [beshanzuenone D]
- IC50 (PTP1B): 40.4 µM

SMILES: CC1=C[C@@]2(C[C@H](C)[C@H]3CC=C(CO)C(=O)[C@@H]3O2)OC1=O [beshanzuenone C]
- IC50 (PTP1B): 59.7 µM
